Structures are written as SMILES. pIC50: −log10 of the molar value.

The results in this text go back to ChEMBL document CHEMBL3596116, “Conformational analysis of peramivir reveals critical differences between free and enzyme-bound states” (Medchemcomm, 2014).

The assay concerns the target Neuraminidase (Influenza A virus, UniProt B4URF0). Further details: species or system unidentified adenovirus.

Sequence of Neuraminidase (B4URF0 whole entry): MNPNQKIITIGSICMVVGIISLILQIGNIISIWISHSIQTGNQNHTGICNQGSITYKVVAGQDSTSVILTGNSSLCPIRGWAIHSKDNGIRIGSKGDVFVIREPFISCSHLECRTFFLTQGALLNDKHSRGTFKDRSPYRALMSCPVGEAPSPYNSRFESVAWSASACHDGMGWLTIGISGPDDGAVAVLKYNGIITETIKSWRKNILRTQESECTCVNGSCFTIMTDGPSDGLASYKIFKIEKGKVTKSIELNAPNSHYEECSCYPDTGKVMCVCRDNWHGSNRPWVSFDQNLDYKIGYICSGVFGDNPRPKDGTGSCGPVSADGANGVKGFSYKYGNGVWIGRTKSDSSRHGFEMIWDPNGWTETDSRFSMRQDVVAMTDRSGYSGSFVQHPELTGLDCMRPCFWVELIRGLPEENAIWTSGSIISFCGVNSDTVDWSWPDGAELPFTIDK

In the case of `CCC(CC)[C@H](NC(C)=O)[C@@H]1[C@H](O)[C@@H](C(=O)O)C[C@H]1NC(=N)N` [PERAMIVIR ANHYDROUS], the negative logarithm of the IC50 (pIC50) (commonly −log10 of the IC50, conventionally taken in molar units) was 10.00.
